PubChem BioAssay AID1963447 (Molecular Pharmacology Branch, DTP, NCI, 2024)
pIC50: −log10 of the molar value.

System: 885512-296-R-J2-PDC complex spheroid growth, % test/control
Test: Anticancer human tumor 885512-296-R-J2-PDC patient-derived breast carcinoma cell line growth inhibition [Asc]
Settings: for pIC50: curve of first compound; for viability, T/C: stronger effect = lower value
In short: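 Stromal components (HUVEC and hMSC) are co-assembled with the cancer cells into multicellular spheroids. Drugs are then added singly or paired, at concentrations falling by half-log increments from a clinically achievable maximum, capped at 10 microM without known Cmax.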

[1] = second compound 0.1 µM, first compound 0.0316 µM
[2] = second compound 0.1 µM, first compound 0.1 µM
[3] = second compound 0.316 µM, first compound 0.0316 µM
[4] = second compound 0.316 µM, first compound 0.1 µM
[5] = second compound 1 µM, first compound 0.0316 µM
[6] = second compound 1 µM, first compound 0.1 µM
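Note: spheroids exposed to compounds for seven days.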
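Throughout, for viability, T/C: 100% = DMSO vehicle control wells.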

`C=C(F)C(=O)N1CCN(c2nc(OCC3CCCN3C)nc3c2CCN(c2cccc4cccc(Cl)c24)C3)CC1CC#N` (stereo not given) + Cc1c(S(C)(=O)=O)c(-c2cc(F)cc(N3CCN(c4ccc(NS(=O)(=O)c5ccc(NC(CCN6CCC(C(=O)OCCCP(=O)(O)O)CC6)CSc6ccccc6)c(S(=O)(=O)C(F)(F)F)c5)cc4)CC3)c2)c(-c2ccc(Cl)cc2)n1C(C)C gave a pIC50 (second compound 0.1 µM) of 5.73, a pIC50 (second compound 0.316 µM) of 5.72 and a pIC50 (second compound 1 µM) of 5.72. For the same compound, the pIC50 (second compound 3.16 µM) was 5.74, the pIC50 (second compound 10 µM) was 5.67 and the viability, T/C [1] was 85.7%. It also gave a viability, T/C [2] of 91%, a viability, T/C (second compound 0.1 µM, first compound 0.316 µM) of 93.2% and a viability, T/C (second compound 0.1 µM, first compound 1 µM) of 85.9%. For the same compound, the viability, T/C (second compound 0.1 µM, first compound 3.16 µM) was 19.7%, the viability, T/C (second compound 0.1 µM, first compound 10 µM) was 0.11% and the viability, T/C [3] was 76.3%. It also gave a viability, T/C [4] of 96.2%, a viability, T/C (second compound 0.316 µM, first compound 0.316 µM) of 95% and a viability, T/C (second compound 0.316 µM, first compound 1 µM) of 90.5%. It also gave a viability, T/C (second compound 0.316 µM, first compound 3.16 µM) of 19.7%, a viability, T/C (second compound 0.316 µM, first compound 10 µM) of 0.13% and a viability, T/C [5] of 83.2%. It also gave a viability, T/C [6] of 84.9%, a viability, T/C (second compound 1 µM, first compound 0.316 µM) of 97.1% and a viability, T/C (second compound 1 µM, first compound 1 µM) of 91.5%. For the same compound, the viability, T/C (second compound 1 µM, first compound 3.16 µM) was 19.5%, the viability, T/C (second compound 1 µM, first compound 10 µM) was 0.12% and the viability, T/C (second compound 3.16 µM, first compound 0.0316 µM) was 101%. For the same compound, the viability, T/C (second compound 3.16 µM, first compound 0.1 µM) was 90.3%, the viability, T/C (second compound 3.16 µM, first compound 0.316 µM) was 92.1% and the viability, T/C (second compound 3.16 µM, first compound 1 µM) was 82.6%. It also gave a viability, T/C (second compound 3.16 µM, first compound 3.16 µM) of 20.3%, a viability, T/C (second compound 3.16 µM, first compound 10 µM) of 0.12% and a viability, T/C (second compound 10 µM, first compound 0.0316 µM) of 115%. The viability, T/C (second compound 10 µM, first compound 0.1 µM) was 107%, the viability, T/C (second compound 10 µM, first compound 0.316 µM) was 96.5% and the viability, T/C (second compound 10 µM, first compound 1 µM) was 100%. The viability, T/C (second compound 10 µM, first compound 3.16 µM) was 24.4% and the viability, T/C (second compound 10 µM, first compound 10 µM) was 0.18%.

In the case of `NC1CCC(NC2CC2c2ccccc2)CC1` (stereo not given) + CNC(C)C(=O)NC1CN(S(=O)(=O)c2cccc(S(=O)(=O)N3CCC4CCC(C(=O)NC(c5ccccc5)c5ccccc5)N4C(=O)C(NC(=O)C(C)NC)C3)c2)CCC2CCC(C(=O)NC(c3ccccc3)c3ccccc3)N2C1=O, the pIC50 (second compound 0.01 µM) was less than 7.00, the pIC50 (second compound 0.0316 µM) was less than 7.00 and the pIC50 (second compound 0.1 µM) was less than 7.00. For the same compound, the pIC50 (second compound 0.316 µM) was less than 7.00, the pIC50 (second compound 1 µM) was less than 7.00 and the viability, T/C (second compound 0.01 µM, first compound 0.000316 µM) was 114%. It also gave a viability, T/C (second compound 0.01 µM, first compound 0.001 µM) of 116%, a viability, T/C (second compound 0.01 µM, first compound 0.00316 µM) of 111% and a viability, T/C (second compound 0.01 µM, first compound 0.01 µM) of 105%. The viability, T/C (second compound 0.01 µM, first compound 0.0316 µM) was 111%, the viability, T/C (second compound 0.01 µM, first compound 0.1 µM) was 113% and the viability, T/C (second compound 0.0316 µM, first compound 0.000316 µM) was 107%. For the same compound, the viability, T/C (second compound 0.0316 µM, first compound 0.001 µM) was 112%, the viability, T/C (second compound 0.0316 µM, first compound 0.00316 µM) was 107% and the viability, T/C (second compound 0.0316 µM, first compound 0.01 µM) was 113%. It also gave a viability, T/C (second compound 0.0316 µM, first compound 0.0316 µM) of 110%, a viability, T/C (second compound 0.0316 µM, first compound 0.1 µM) of 110% and a viability, T/C (second compound 0.1 µM, first compound 0.000316 µM) of 107%. The viability, T/C (second compound 0.1 µM, first compound 0.001 µM) was 91%, the viability, T/C (second compound 0.1 µM, first compound 0.00316 µM) was 109% and the viability, T/C (second compound 0.1 µM, first compound 0.01 µM) was 106%. It also gave a viability, T/C [1] of 104%, a viability, T/C [2] of 111% and a viability, T/C (second compound 0.316 µM, first compound 0.000316 µM) of 108%. The viability, T/C (second compound 0.316 µM, first compound 0.001 µM) was 110%, the viability, T/C (second compound 0.316 µM, first compound 0.00316 µM) was 112% and the viability, T/C (second compound 0.316 µM, first compound 0.01 µM) was 105%. The viability, T/C [3] was 108%, the viability, T/C [4] was 110% and the viability, T/C (second compound 1 µM, first compound 0.000316 µM) was 111%. For the same compound, the viability, T/C (second compound 1 µM, first compound 0.001 µM) was 104%, the viability, T/C (second compound 1 µM, first compound 0.00316 µM) was 110% and the viability, T/C (second compound 1 µM, first compound 0.01 µM) was 98.6%. It also gave a viability, T/C [5] of 105% and a viability, T/C [6] of 109%.
